Measurements published in patent US4452812A, “Organic complex of platinum, its preparation and its use for treating malignant tumors” (Sanofi, priority 1980, dated 1984).
“Also recorded” adds a separate entry of the source.

Experiments:
sarcoma S 180 = experiment: Anti-tumour activity, sarcoma S 180 ascite, i.p. graft, i.p. treatment; type: in vivo, mouse (Swiss female); details: for ILS: single i.p. on D1
Method: Swiss female mice (Evic-Ceba, Bordeaux) of 20 to 22 g
10^6 cells intraperitoneally grafted on D0
intraperitoneal treatment 24 hours later, D1, in one single injection.
The solutions of these compounds were prepared extemporaneously.

rat = experiment: Acute toxicity in the rat; type: in vivo, rat (Sprague-Dawley)
Method: Acute toxicity, one single injection of the compound, was measured using Swiss female mice (Evic-Ceba, Bordeaux) of 21 to 23 g. and Sprague-Dawley rats. Ten animals were treated for each dose studied.

NC1CCCCC1N.O=C([O-])CC(C(=O)[O-])C([O-])C(=O)[O-].[H+].[H+].[Pt+2] (stereo not drawn) [PHIC, cis-isocitrato (1,2-diaminocyclohexane) platinum (II)]
ILS (sarcoma S 180; 10 mg/kg): 29% | ILS (sarcoma S 180; 25 mg/kg): 46% | ILS (sarcoma S 180; 50 mg/kg): 112% | ILS (sarcoma S 180; 100 mg/kg): 171% | Survivals (sarcoma S 180; S 180, 10 mg/kg i.p. on D1, day 60): 0% | Survivals (sarcoma S 180; S 180, 25 mg/kg i.p. on D1, day 60): 0% | Survivals (sarcoma S 180; S 180, 50 mg/kg i.p. on D1, day 60): 20% | Survivals (sarcoma S 180; S 180, 100 mg/kg i.p. on D1, day 60): 40% | anti-tumour activity (in words) (sarcoma S 180; sarcoma S 180): Very marked anti-tumor activity; also recorded: exerts the anti-tumour activity | LD10 (rat; I.P.): 61 mg/kg | LD50 (rat; I.P.): 143 mg/kg | LD90 (rat; I.P.): 278 mg/kg | LD10 (rat; I.V.): 111 mg/kg | LD50 (rat; I.V.): 173 mg/kg | LD90 (rat; I.V.): 244 mg/kg | LD50 (rat; P.O.): > 1 000 mg/Kg
